The series concerns human keratinocytes. The series can be described thus: Cytotoxicity of cadmium chloride toward human keratinocytes in culture (intracellular glutathione, monochlorobimane probe), in the presence or absence of hyacinth extract. In kind it is cell-based. The following applies: 24 hours; for toxicity toward human keratinocytes: human keratinocytes in vitro. Here is the method: Heavy metals such as cadmium, nickel, lead, mercury, etc. can lead to cytotoxicity on the cells of various organs including the skin. The cytotoxic effect of cadmium on human keratinocytes in culture was evaluated by means of a technique using a fluorescent probe to measure the level of intracellular glutathione (J. C. Fernandez Checa et al. 1990, R. Kannan et al. 1993).
The study was performed on a monolayer culture of human keratinocytes obtained from plastic surgeries. The cells are inoculated on D-3 into 96-well culture dishes at a rate of 25 000 cells/cm^2 in 100 μl of culture medium (calf serum-free defined medium, NR2, Biofluids). The incubations are performed in an incubator at 37° C. under a humid atmosphere enriched with 5% CO2.
The cells are treated for 24 hours with increasing concentrations (0, 10, 25, 50, 75, 100, 150 and 200 μM) of cadmium chloride (CdCl2) alone, so as to determine its cytotoxicity. In parallel, a treatment is performed under the same conditions, but in the presence of hyacinth extract (0.125%). The incubations are performed in an incubator at 37° C., [lacuna]% CO2 under a humid atmosphere.
At the end of the contact period, labeling of the intracellular glutathione is performed using a specific fluorescent probe: monochlorobimane (MCB).
Briefly, after treatment, rinse the cells with buffer (PBS) so as to remove the treatment solutions.
Add 100 μl per well of a 1 mM MCB solution over one hour at room temperature and protected from light.
Eliminate the MCB, and add 200 μl/well of PBS buffer.
Read on the spectrofluorimeter (excitation: 380 nm; emission: 485 nm).
The fluorescence obtained is proportional to the amount of glutathione conjugated to the MCB.
Calculate the concentration of CdCl2 that results in a 50% drop in the level of glutathione (=IC.50)

This note sets out measurements from US20040047831A1, “Use of a cell extract of at least a plant of the family pontederiaceae as anti-pollution agent” (priority 2000, published 2004).

Turning to `[Cl][Cd][Cl]` [cadmium chloride], the IC50 (CdCl2 alone, human keratinocyte monolayer, concentration giving 50% drop in glutathione level/cell viability, 3 independent experiments, read-out: IC.50 of cadmium chloride without protecting agent, Mean ± SEM) was determined as 43.7 µM. For the same compound, the “toxicity toward human keratinocytes” value (listed as Cadmium chloride) is on record as “considerable toxicity” and the “toxicity toward human keratinocytes” value (listed as cadmium) was “strong toxicity”.
